# Results published in ChEMBL document CHEMBL1201862, “PubChem BioAssay data set” (2004).
#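 In this assay, cells in 96-well plates receive the compound at five concentrations for 48 hours. Endpoints are linearly interpolated between the surrounding concentrations. Here, GI50 denotes the concentration required for 50% inhibition of growth.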 Activity calls are given as the source filed them. Rule as the data show it: active = GI50 up to about 1.1 µM and inactive = higher.
# How the values were obtained:
# Assay in all cases: DTP human tumour cell line panel, 48 h
# [1] = test system: A549
# [2] = test system: SF-295
# [3] = test system: CAKI-1
# [4] = test system: T47D
# [5] = test system: 786-0
# [6] = test system: HCT-15
# [7] = test system: DU-145
# [8] = test system: U-251
# [9] = test system: NCI-H226
# [10] = test system: SK-MEL-5
# [11] = test system: EKVX
# [12] = test system: NCI-H460
# [13] = test system: SF-539
# [14] = test system: SR
# [15] = test system: RXF 393
# [16] = test system: COLO 205
# [17] = test system: OVCAR-3
# [18] = test system: LOX IMVI
# [19] = test system: K562
# [20] = test system: MDA-MB-435
# [21] = test system: HOP-92
# [22] = test system: HOP-62
# [23] = test system: BT-549
# [24] = test system: NCI-H522
# [25] = test system: NCI/ADR-RES
# [26] = test system: SW-620
# [27] = test system: OVCAR-5
# [28] = test system: HCT-116
# [29] = test system: UACC-62
# [30] = test system: MDA-MB-231
# [31] = test system: A498
# [32] = test system: OVCAR-8
# [33] = test system: HCC 2998
# [34] = test system: SNB-19
# [35] = test system: OVCAR-4
# [36] = test system: SNB-75
# [37] = test system: MCF7
# [38] = test system: M14
# [39] = test system: TK-10
# [40] = test system: UO-31
# [41] = test system: KM12
# [42] = test system: Hs-578T
# [43] = test system: MDA-N
# [44] = test system: SK-MEL-28
# [45] = test system: SN12C
# [46] = test system: RPMI-8226
# [47] = test system: UACC-257
# [48] = test system: SF-268
# [49] = test system: HT-29
# [50] = test system: PC-3
# [51] = test system: IGROV-1
# [52] = test system: MOLT-4
# [53] = test system: SK-MEL-2
# [54] = test system: NCI-H23
# [55] = test system: ACHN
# [56] = test system: SK-OV-3
# [57] = test system: HL-60
# [58] = test system: CCRF-CEM
# [59] = test system: Malme-3M
# [60] = test system: DMS-114
# [61] = test system: DLD-1
# [62] = test system: LXFL 529
# [63] = test system: DMS-273
structure (smiles),measurement,setting,value
CN(C)CCCNC(=O)c1cc(NS(=O)(=O)c2ccc3c(c2)C(=O)c2ccccc2C3=O)cn1C,GI50,[1],35.9 µM (inactive)
same,GI50,[2],31.3 µM (inactive)
same,GI50,[3],67.6 µM (inactive)
same,GI50,[4],35.2 µM (inactive)
same,GI50,[5],28.7 µM (inactive)
same,GI50,[6],42.8 µM
same,GI50,[7],40.3 µM (inactive)
same,GI50,[8],29.1 µM (inactive)
same,GI50,[9],22.9 µM (inactive)
same,GI50,[10],13.1 µM (inactive)
same,GI50,[11],> 100 µM (inactive)
same,GI50,[12],18.8 µM (inactive)
same,GI50,[13],42.8 µM (inactive)
same,GI50,[14],21.9 µM (inactive)
same,GI50,[15],28 µM (inactive)
same,GI50,[16],23.6 µM (inactive)
same,GI50,[17],13.5 µM (inactive)
same,GI50,[18],13.8 µM (inactive)
same,GI50,[19],30 µM (inactive)
same,GI50,[20],25.4 µM (inactive)
same,GI50,[21],32.1 µM (inactive)
same,GI50,[22],37.8 µM (inactive)
same,GI50,[23],24.5 µM (inactive)
same,GI50,[24],22.6 µM (inactive)
same,GI50,[25],> 100 µM (inactive)
same,GI50,[26],46.3 µM (inactive)
same,GI50,[27],35.6 µM (inactive)
same,GI50,[28],51.3 µM (inactive)
same,GI50,[29],20.8 µM (inactive)
same,GI50,[30],24.8 µM (inactive)
same,GI50,[31],23.2 µM (inactive)
same,GI50,[32],40.3 µM (inactive)
same,GI50,[33],24.5 µM (inactive)
same,GI50,[34],12.8 µM (inactive)
same,GI50,[35],16.8 µM (inactive)
same,GI50,[36],30.8 µM (inactive)
same,GI50,[37],19.5 µM (inactive)
same,GI50,[38],22.3 µM (inactive)
same,GI50,[39],25.2 µM (inactive)
same,GI50,[40],56.4 µM (inactive)
same,GI50,[41],17.8 µM (inactive)
same,GI50,[42],76.4 µM (inactive)
same,GI50,[43],28.1 µM (inactive)
same,GI50,[44],27.1 µM (inactive)
same,GI50,[45],29.1 µM (inactive)
same,GI50,[46],14.8 µM (inactive)
same,GI50,[47],19.2 µM (inactive)
same,GI50,[48],29.5 µM (inactive)
same,GI50,[49],28.8 µM (inactive)
same,GI50,[50],33.3 µM (inactive)
same,GI50,[51],33 µM (inactive)
same,GI50,[52],32.7 µM (inactive)
same,GI50,[53],40.5 µM (inactive)
same,GI50,[54],24.1 µM (inactive)
same,GI50,[55],14.6 µM (inactive)
same,GI50,[56],92.5 µM (inactive)
same,GI50,[57],22.1 µM (inactive)
same,GI50,[58],21.5 µM (inactive)
same,GI50,[59],5.5 µM (inactive)
COc1cc([C@H]2Oc3cc(O)c4c(=O)cc(-c5ccccc5)oc4c3O[C@@H]2CO)ccc1O,GI50,[3],26.4 µM (inactive)
same,GI50,[5],23.4 µM (inactive)
same,GI50,[6],91.2 µM
same,GI50,[9],32.4 µM (inactive)
same,GI50,[13],22.2 µM (inactive)
same,GI50,[14],29.4 µM (inactive)
same,GI50,[16],69.5 µM (inactive)
same,GI50,[19],48.4 µM (inactive)
same,GI50,[60],28 µM (inactive)
same,GI50,[21],29.7 µM (inactive)
same,GI50,[22],55.1 µM (inactive)
same,GI50,[24],19.3 µM (inactive)
same,GI50,[28],30.1 µM (inactive)
same,GI50,[61],46.9 µM (inactive)
same,GI50,[29],25.1 µM (inactive)
same,GI50,[31],21.9 µM (inactive)
same,GI50,[33],58.5 µM (inactive)
same,GI50,[35],19.9 µM (inactive)
same,GI50,[36],16.8 µM (inactive)
same,GI50,[38],39 µM (inactive)
same,GI50,[40],13.8 µM (inactive)
same,GI50,[62],21.6 µM (inactive)
same,GI50,[44],28.6 µM (inactive)
same,GI50,[45],32.9 µM (inactive)
same,GI50,[46],59.8 µM (inactive)
same,GI50,[48],15.6 µM (inactive)
same,GI50,[51],34 µM (inactive)
same,GI50,[52],46.5 µM (inactive)
same,GI50,[53],40.4 µM (inactive)
same,GI50,[54],22.5 µM (inactive)
same,GI50,[55],20.3 µM (inactive)
same,GI50,[56],27.4 µM (inactive)
same,GI50,[63],51.3 µM (inactive)
same,GI50,[57],50.8 µM (inactive)
same,GI50,[58],65.6 µM (inactive)
same,GI50,[59],19 µM (inactive)
